# Reference: ChEMBL document CHEMBL1201862, “PubChem BioAssay data set” (2004)
#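 Exposure lasted 48 hours, with cells grown in 96-well plates and compounds tested at five concentrations. GI50 marks 50% less growth.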 Active and inactive are the calls of the source. No stated cut-off is given here; in the data, active = GI50 up to about 1.1 µM and inactive = higher.
# Key:
# Test in all cases: NCI-60 cell line screen, 48 h
# OVCAR-8 = test system: OVCAR-8
# HCT-116 = test system: HCT-116
# SR = test system: SR
# NCI/ADR-RES = test system: NCI/ADR-RES
# ACHN = test system: ACHN
# Malme-3M = test system: Malme-3M
# HL-60 = test system: HL-60
# MCF7 = test system: MCF7
# 786-0 = test system: 786-0
# CAKI-1 = test system: CAKI-1
# LOX IMVI = test system: LOX IMVI
# UACC-62 = test system: UACC-62
# SF-268 = test system: SF-268
# Hs-578T = test system: Hs-578T
# SK-MEL-28 = test system: SK-MEL-28
# RPMI-8226 = test system: RPMI-8226
# MDA-MB-231 = test system: MDA-MB-231
# T47D = test system: T47D
# SF-539 = test system: SF-539
# SNB-19 = test system: SNB-19
# NCI-H460 = test system: NCI-H460
# U-251 = test system: U-251
# UACC-257 = test system: UACC-257
# HT-29 = test system: HT-29
# RXF 393 = test system: RXF 393
# EKVX = test system: EKVX
# NCI-H23 = test system: NCI-H23
# NCI-H226 = test system: NCI-H226
# TK-10 = test system: TK-10
# IGROV-1 = test system: IGROV-1
# M14 = test system: M14
# SNB-75 = test system: SNB-75
# CCRF-CEM = test system: CCRF-CEM
# OVCAR-3 = test system: OVCAR-3
# A549 = test system: A549
# SK-MEL-5 = test system: SK-MEL-5
# OVCAR-5 = test system: OVCAR-5
# SN12C = test system: SN12C
# MDA-N = test system: MDA-N
# KM12 = test system: KM12
# NCI-H522 = test system: NCI-H522
# SF-295 = test system: SF-295
# OVCAR-4 = test system: OVCAR-4
# HCC 2998 = test system: HCC 2998
# HOP-62 = test system: HOP-62
# SW-620 = test system: SW-620
# HOP-92 = test system: HOP-92
# MOLT-4 = test system: MOLT-4
# PC-3 = test system: PC-3
# COLO 205 = test system: COLO 205
# A498 = test system: A498
# SK-MEL-2 = test system: SK-MEL-2
# SK-OV-3 = test system: SK-OV-3
# MDA-MB-435 = test system: MDA-MB-435
# BT-549 = test system: BT-549
# HCT-15 = test system: HCT-15
# K562 = test system: K562
# DU-145 = test system: DU-145
# UO-31 = test system: UO-31
smiles,measurement,setting,value
Clc1ccc(/C=N/C23CC4CC(CC(C4)C2)C3)cc1Cl,GI50,OVCAR-8,> 10 µM (inactive)
same,GI50,HCT-116,> 10 µM (inactive)
same,GI50,SR,> 10 µM (inactive)
same,GI50,NCI/ADR-RES,> 10 µM (inactive)
same,GI50,ACHN,> 10 µM (inactive)
same,GI50,Malme-3M,> 10 µM (inactive)
same,GI50,HL-60,> 10 µM (inactive)
same,GI50,MCF7,> 10 µM (inactive)
same,GI50,786-0,> 10 µM (inactive)
same,GI50,CAKI-1,> 10 µM (inactive)
same,GI50,LOX IMVI,> 10 µM (inactive)
same,GI50,UACC-62,> 10 µM (inactive)
same,GI50,SF-268,> 10 µM (inactive)
same,GI50,Hs-578T,> 10 µM (inactive)
same,GI50,SK-MEL-28,> 10 µM (inactive)
same,GI50,RPMI-8226,> 10 µM (inactive)
same,GI50,MDA-MB-231,> 10 µM (inactive)
same,GI50,T47D,> 10 µM (inactive)
same,GI50,SF-539,> 10 µM (inactive)
same,GI50,SNB-19,> 10 µM (inactive)
same,GI50,NCI-H460,> 10 µM (inactive)
same,GI50,U-251,> 10 µM (inactive)
same,GI50,UACC-257,> 10 µM (inactive)
same,GI50,HT-29,> 10 µM (inactive)
same,GI50,RXF 393,> 10 µM (inactive)
same,GI50,EKVX,> 10 µM (inactive)
same,GI50,NCI-H23,> 10 µM (inactive)
same,GI50,NCI-H226,> 10 µM (inactive)
same,GI50,TK-10,> 10 µM (inactive)
same,GI50,IGROV-1,> 10 µM (inactive)
same,GI50,M14,> 10 µM (inactive)
same,GI50,SNB-75,> 10 µM (inactive)
same,GI50,CCRF-CEM,> 10 µM (inactive)
same,GI50,OVCAR-3,> 10 µM (inactive)
same,GI50,A549,> 10 µM (inactive)
same,GI50,SK-MEL-5,> 10 µM (inactive)
same,GI50,OVCAR-5,> 10 µM (inactive)
same,GI50,SN12C,> 10 µM (inactive)
same,GI50,MDA-N,> 10 µM (inactive)
same,GI50,KM12,> 10 µM (inactive)
same,GI50,NCI-H522,> 10 µM (inactive)
same,GI50,SF-295,> 10 µM (inactive)
same,GI50,OVCAR-4,> 10 µM (inactive)
same,GI50,HCC 2998,> 10 µM (inactive)
same,GI50,HOP-62,> 10 µM (inactive)
same,GI50,SW-620,> 10 µM (inactive)
same,GI50,HOP-92,> 10 µM (inactive)
same,GI50,MOLT-4,> 10 µM (inactive)
same,GI50,PC-3,> 10 µM (inactive)
same,GI50,COLO 205,> 10 µM (inactive)
same,GI50,A498,> 10 µM (inactive)
same,GI50,SK-MEL-2,> 10 µM (inactive)
same,GI50,SK-OV-3,> 10 µM (inactive)
same,GI50,MDA-MB-435,> 10 µM (inactive)
same,GI50,BT-549,> 10 µM (inactive)
same,GI50,HCT-15,> 10 µM
same,GI50,K562,> 10 µM (inactive)
same,GI50,DU-145,> 10 µM (inactive)
O=C1Nc2ccccc2SC1=C(C(=O)c1ccccc1)C(=O)c1ccccc1,GI50,OVCAR-8,52.4 µM (inactive)
same,GI50,HCT-116,29.5 µM (inactive)
same,GI50,SR,17.7 µM (inactive)
same,GI50,NCI/ADR-RES,40.1 µM (inactive)
same,GI50,ACHN,42.1 µM (inactive)
same,GI50,Malme-3M,> 85.7 µM (inactive)
same,GI50,HL-60,0.091 µM (active)
same,GI50,MCF7,34.9 µM (inactive)
same,GI50,786-0,43.7 µM (inactive)
same,GI50,CAKI-1,60.4 µM (inactive)
same,GI50,LOX IMVI,31.3 µM (inactive)
same,GI50,UACC-62,20.7 µM (inactive)
same,GI50,SF-268,32.1 µM (inactive)
same,GI50,Hs-578T,31.6 µM (inactive)
same,GI50,UO-31,53.3 µM (inactive)
same,GI50,SK-MEL-28,55.6 µM (inactive)
same,GI50,RPMI-8226,28.8 µM (inactive)
same,GI50,MDA-MB-231,27.1 µM (inactive)
same,GI50,T47D,53 µM (inactive)
same,GI50,SF-539,39.6 µM (inactive)
same,GI50,SNB-19,41.2 µM (inactive)
same,GI50,NCI-H460,28.1 µM (inactive)
same,GI50,U-251,33.2 µM (inactive)
same,GI50,UACC-257,33.3 µM (inactive)
same,GI50,HT-29,32.4 µM (inactive)
same,GI50,RXF 393,55 µM (inactive)
same,GI50,EKVX,34.8 µM (inactive)
same,GI50,NCI-H23,29.7 µM (inactive)
same,GI50,NCI-H226,45.8 µM (inactive)
same,GI50,TK-10,63.4 µM (inactive)
same,GI50,IGROV-1,42.3 µM (inactive)
same,GI50,M14,28.3 µM (inactive)
same,GI50,SNB-75,51.5 µM (inactive)
same,GI50,CCRF-CEM,4.17 µM (inactive)
same,GI50,OVCAR-3,12.3 µM (inactive)
same,GI50,A549,36.6 µM (inactive)
same,GI50,SK-MEL-5,32.9 µM (inactive)
same,GI50,OVCAR-5,27.8 µM (inactive)
same,GI50,SN12C,24 µM (inactive)
same,GI50,MDA-N,19.7 µM (inactive)
same,GI50,KM12,34 µM (inactive)
same,GI50,NCI-H522,20.4 µM (inactive)
same,GI50,SF-295,17.1 µM (inactive)
same,GI50,OVCAR-4,43.2 µM (inactive)
same,GI50,HCC 2998,22.2 µM (inactive)
same,GI50,HOP-62,46.7 µM (inactive)
same,GI50,SW-620,34.6 µM (inactive)
same,GI50,HOP-92,38.1 µM (inactive)
same,GI50,MOLT-4,1.04 µM (active)
same,GI50,PC-3,26.3 µM (inactive)
same,GI50,COLO 205,29.2 µM (inactive)
same,GI50,A498,32.4 µM (inactive)
same,GI50,SK-MEL-2,24.8 µM (inactive)
same,GI50,SK-OV-3,16 µM (inactive)
same,GI50,MDA-MB-435,21.8 µM (inactive)
same,GI50,BT-549,30.5 µM (inactive)
same,GI50,HCT-15,37.5 µM
same,GI50,K562,4.06 µM (inactive)
same,GI50,DU-145,38.1 µM (inactive)
